18 compounds from patent EP4806898A1, “HETEROARYL DERIVATIVE COMPOUND AND USE THEREOF” (Voronoi Inc., priority 2023, dated 2025) can be followed below.

One may read the GI50 as the concentration giving 50% growth inhibition. Usually ΔTm stands for the shift of the melting midpoint relative to a reference.

The subject of one assay is UWB1.289 cells. As to the kind of experiment: Cell proliferation inhibitory activity in BRCA1/2-mutant or HRD-positive cells (Cell Titer-Glo). The assay is classed as cell-based. Conditions: UWB1289; UWB1.289 cells, 144 hours after compound treatment, Cell Titer-Glo, 1.5 nM to 10 µM; read-out: GI50 UWB1.289 BRCA1 mut. An outline of the steps: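 UWB1.289 cells (1,000/well) in 50% MEBM/50% RPMI1640 exposed to […], final 1.5 nM to 10 µM, for 144 h at 37 °C. Viable cells measured by CellTiter-Glo luminescence; GI50 calculated.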

Another assay addresses T1, recombinant USP1 protein (Homo sapiens, UniProt O94782, DEL125-138/DEL229-408/DEL608-737).
T1 sequence (O94782 with tags, fused parts or gaps DEL125-138/DEL229-408/DEL608-737): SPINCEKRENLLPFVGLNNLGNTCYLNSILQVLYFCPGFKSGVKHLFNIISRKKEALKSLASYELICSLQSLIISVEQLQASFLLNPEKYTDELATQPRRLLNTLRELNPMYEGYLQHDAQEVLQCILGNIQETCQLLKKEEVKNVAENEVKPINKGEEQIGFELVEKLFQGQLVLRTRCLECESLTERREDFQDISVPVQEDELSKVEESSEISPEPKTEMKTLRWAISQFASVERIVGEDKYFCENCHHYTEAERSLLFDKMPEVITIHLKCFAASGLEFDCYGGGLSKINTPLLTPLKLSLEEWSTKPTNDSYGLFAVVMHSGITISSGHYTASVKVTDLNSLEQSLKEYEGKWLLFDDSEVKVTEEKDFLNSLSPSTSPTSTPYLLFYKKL
Nature of the assay: Binding affinity to recombinant USP1 protein by differential scanning fluorimetry. To be noted: compound 100 µM; 0.03 mg/mL USP1 (Δ1-66, Δ125-138, Δ229-408, Δ608-737); Tm with compound minus Tm with DMSO; read-out: ΔTm (°C). An outline of the steps: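 USP1 (Δ1-66, Δ125-138, Δ229-408, Δ608-737) at 0.03 mg/mL with dye in 50 mM Tris-HCl pH 8.0, 150 mM NaCl, 2% glycerol, 1 mM DTT; compounds at 100 µM final. Tm read on real-time PCR instrument; ΔTm = Tm with compound minus Tm with DMSO.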
Background: Differential scanning fluorimetry follows unfolding on heating by fluorescence.

Take `COc1ncnc(C2CC2)c1-c1ncc2cc(C(=O)N[C@@H]3CCN(C)C[C@@H]3F)n(Cc3ccc(-c4nc(C(F)(F)F)cn4C(C)C)cc3)c2n1` [Example 219, 2-(4-cyclopropyl-6-methoxypyrimidin-5-yl)-N-((3S,4R)-3-fluoro-1-methylpiperidin-4-yl)-7-(4-(1-isopropyl-4-(trifluoromethyl)-1H-imidazol-2-yl)benzyl)-7H-pyrrolo[2,3-d]pyrimidine-6-carboxamide]: the concentration for 50% growth inhibition (GI50) with UWB1.289 cells is under 100 nM. In addition, at recombinant USP1 protein, the ΔTm at 100 µM was over 5 °C.

`COc1ncnc(C2CC2)c1-c1ncc2cc(C(=O)NC3CCC3)n(Cc3ccc(-c4nc(C(F)(F)F)cn4C(C)C)cc3)c2n1` [Example 15, N-cyclobutyl-2-(4-cyclopropyl-6-methoxypyrimidin-5-yl)-7-(4-(1-isopropyl-4-(trifluoromethyl)-1H-imidazol-2-yl)benzyl)-7H-pyrrolo[2,3-d]pyrimidine-6-carboxamide]: the GI50 with UWB1.289 cells is under 100 nM. The ΔTm at 100 µM at recombinant USP1 protein was over 5 °C.

As to `COc1ncnc(C2CC2)c1-c1ncc2cc(C(=O)NC[C@H]3CCCN3)n(Cc3ccc(-c4nc(C(F)(F)F)cn4C(C)C)cc3)c2n1` [Example 58, (R) -2-(4-cyclopropyl-6-methoxypyrimidin-5-yl)-7-(4-(1-isopropyl-4-(trifluoromethyl)-1H-imidazol-2-yl)benzyl)-N-(pyrrolidin-2-ylmethyl)-7H-pyrrolo[2,3-d]pyrimidine-6-carboxamide], the GI50 with UWB1.289 cells is under 100 nM. The thermal shift (ΔTm) at 100 µM at recombinant USP1 protein is over 5 °C.

Take `COc1ncnc(C2CC2)c1-c1ncc2cc(C(N)=O)n(Cc3ccc(-n4nc(C(F)(F)F)cc4C)cc3)c2n1` [Example 177, 2-(4-cyclopropyl-6-methoxypyrimidin-5-yl)-7-(4-(5-methyl-3-(trifluoromethyl)-1H-pyrazol-1-yl)benzyl)-7H-pyrrolo[2,3-d]pyrimidine-6-carboxamide]: the GI50 in the assay with UWB1.289 cells is under 100 nM. The ΔTm at 100 µM on recombinant USP1 protein is over 5 °C.

For `COc1ncnc(C2CC2)c1-c1ncc2cc(C(=O)NC3CNC3)n(Cc3ccc(-c4nc(C(F)(F)F)cn4C(C)C)cc3)c2n1` [Example 36, N-(azetidin-3-yl)-2-(4-cyclopropyl-6-methoxypyrimidin-5-yl)-7-(4-(1-isopropyl-4-(trifluoromethyl)-1H-imidazol-2-yl)benzyl)-7H-pyrrolo[2,3-d]pyrimidine-6-carboxamide], in the assay on UWB1.289 cells, the 50% growth inhibitory concentration (GI50) is 100 to 500 nM. For the same compound, the ΔTm at 100 µM at recombinant USP1 protein is over 5 °C.

With `COc1ncnc(C2CC2)c1-c1ncc2cc(C(=O)N[C@H]3CN(C)C[C@H]3F)n(Cc3ccc(-c4nc(C(F)(F)F)cn4C)cc3)c2n1` [Example 182, 2-(4-cyclopropyl-6-methoxypyrimidin-5-yl)-N-((3S,4R)-4-fluoro-1-methylpyrrolidin-3-yl)-7-(4-(1-methyl-4-(trifluoromethyl)-1H-imidazol-2-yl)benzyl)-7H-pyrrolo[2,3-d]pyrimidine-6-carboxamide], in the assay on UWB1.289 cells, the concentration for 50% growth inhibition (GI50) is under 100 nM. The ΔTm at 100 µM on recombinant USP1 protein is over 5 °C.

As to `C#CCNC(=O)c1cc2cnc(-c3c(OC)ncnc3C3CC3)nc2n1Cc1ccc(-c2nc(C(F)(F)F)cn2C(C)C)cc1` [Example 60, 2-(4-cyclopropyl-6-methoxypyrimidin-5-yl)-7-(4-(1-isopropyl-4-(trifluoromethyl)-1H-imidazol-2-yl)benzyl)-N-(prop-2-yn-1-yl)-7H-pyrrolo[2,3-d]pyrimidine-6-carboxamide], the concentration for 50% growth inhibition (GI50) with UWB1.289 cells was under 100 nM. Besides, on recombinant USP1 protein, the ΔTm at 100 µM was over 5 °C.

On to `COc1ncnc(C2CC2)c1-c1ncc2cc(C(=O)Nc3cccc4ccccc34)n(Cc3ccc(-c4nc(C(F)(F)F)cn4C(C)C)cc3)c2n1` [Example 28, 2-(4-cyclopropyl-6-methoxypyrimidin-5-yl)-7-(4-(1-isopropyl-4-(trifluoromethyl)-1H-imidazol-2-yl)benzyl)-N-(naphthalen-1-yl)-7H-pyrrolo[2,3-d]pyrimidine-6-carboxamide], for which the GI50 in the assay on UWB1.289 cells was under 100 nM. Further, at recombinant USP1 protein, the thermal shift (ΔTm) at 100 µM is over 5 °C.

As to `COc1ncnc(C2CC2)c1-c1ncc2cc(C(=O)N(C)CCN(C)C)n(Cc3ccc(-c4nc(C(F)(F)F)cn4C(C)C)cc3)c2n1` [Example 38, 2-(4-cyclopropyl-6-methoxypyrimidin-5-yl)-N-(2-(dimethylamino)ethyl)-7-(4-(1-isopropyl-4-(trifluoromethyl)-1H-imidazol-2-yl)benzyl)-N-methyl-7H-pyrrolo [2,3-d]pyrimidine-6-carboxamide], the GI50 in the assay with UWB1.289 cells was under 100 nM. Moreover, the ΔTm at 100 µM on recombinant USP1 protein was over 5 °C.

As to `COc1ncnc(C2CC2)c1-c1ncc2cc(C(=O)NCCC(F)(F)F)n(Cc3ccc(-c4nc(C(F)(F)F)cn4C(C)C)cc3)c2n1` [Example 34, 2-(4-cyclopropyl-6-methoxypyrimidin-5-yl)-7-(4-(1-isopropyl-4-(trifluoromethyl)-1H-imidazol-2-yl)benzyl)-N-(3,3,3-trifluoropropyl)-7H-pyrrolo[2,3-d]pyrimidine-6-carboxamide], in the assay with UWB1.289 cells, the GI50 fell in the range of 100 to 500 nM. In addition, the ΔTm at 100 µM on recombinant USP1 protein is over 5 °C.

Turning to `COc1ncnc(C2CC2)c1-c1ncc2cc(C(=O)NCCN)n(Cc3ccc(-c4nc(C(F)(F)F)cn4C(C)C)cc3)c2n1` [Example 100, N-(2-aminoethyl)-2-(4-cyclopropyl-6-methoxypyrimidin-5-yl)-7-(4-(1-isopropyl-4-(trifluoromethyl)-1H-imidazol-2-yl)benzyl)-7H-pyrrolo[2,3-d]pyrimidine-6-carboxamide], the GI50 in the assay with UWB1.289 cells was 100 to 500 nM. Also, the ΔTm at 100 µM on recombinant USP1 protein is over 5 °C.

In the case of `CCCNC(=O)c1cc2cnc(-c3c(OC)ncnc3C3CC3)nc2n1Cc1ccc(-c2nc(C(F)(F)F)cn2C(C)C)cc1` [Example 37, 2-(4-cyclopropyl-6-methoxypyrimidin-5-yl)-7-(4-(1-isopropyl-4-(trifluoromethyl)-1H-imidazol-2-yl)benzyl)-N-propyl-7H-pyrrolo[2,3-d]pyrimidine-6-carboxamide], in the assay on UWB1.289 cells, the GI50 is under 100 nM. Further, the ΔTm at 100 µM at recombinant USP1 protein is over 5 °C.

Take `COc1ncnc(C2CC2)c1-c1ncc2cc(C(=O)N[C@H]3CN(C4CC4)C[C@H]3F)n(Cc3ccc(-c4nc(C(F)(F)F)cn4C)cc3)c2n1` [Example 215, N-((3S,4R)-1-cyclopropyl-4-fluoropyrrolidin-3-yl)-2-(4-cyclopropyl-6-methoxypyrimidin-5-yl)-7-(4-(1-methyl-4-(trifluoromethyl)-1H-imidazol-2-yl)benzyl)-7H-pyrrolo[2,3-d]pyrimidine-6-carboxamide]: the GI50 in the assay on UWB1.289 cells is under 100 nM. In addition, the ΔTm at 100 µM at recombinant USP1 protein was over 5 °C.

With `COc1ncnc(C2CC2)c1-c1ncc2cc(C(=O)N3CC[C@H](OC)C3)n(Cc3ccc(-c4nc(C(F)(F)F)cn4C(C)C)cc3)c2n1` [Example 128, (S)-(2-(4-cyclopropyl-6-methoxypyrimidin-5-yl)-7-(4-(1-isopropyl-4-(trifluoromethyl)-1H-imidazol-2-yl)benzyl)-7H-pyrrolo[2,3-d]pyrimidin-6-yl) (3-methoxypyrrolidin-1-yl)methanone], the GI50 in the assay with UWB1.289 cells was under 100 nM. In addition, the ΔTm at 100 µM at recombinant USP1 protein is over 5 °C.

Turning to `CCN1CCN(C(=O)c2cc3cnc(-c4c(OC)ncnc4C4CC4)nc3n2Cc2ccc(-c3nc(C(F)(F)F)cn3C(C)C)cc2)CC1` [Example 57, (2-(4-cyclopropyl-6-methoxypyrimid in-5-yl)-7-(4-(1-isopropyl-4-(trifluoromethyl)-1H-imidazol-2-yl)benzyl)-7H-pyrrolo[2,3-d]pyrimidin-6-yl) (4-ethylpiperazin-1-yl)methanone], the GI50 in the assay with UWB1.289 cells is under 100 nM. The ΔTm at 100 µM at recombinant USP1 protein was over 5 °C.

Consider `CC[C@H](C)NC(=O)c1cc2cnc(-c3c(OC)ncnc3C3CC3)nc2n1Cc1ccc(-c2nc(C(F)(F)F)cn2C(C)C)cc1` [Example 82, (S)-N-(sec-butyl)-2-(4-cyclopropyl-6-methoxypyrimidin-5-yl)-7-(4-(1-isopropyl-4-(trifluoromethyl)-1H-imidazol-2-yl)benzyl)-7H-pyrrolo[2,3-d]pyrimidine-6-carboxamide], for which, in the assay with UWB1.289 cells, the GI50 was under 100 nM. The ΔTm at 100 µM on recombinant USP1 protein is over 5 °C.

With `CNC(=O)c1cc2cnc(-c3c(OC)ncnc3C3CC3)cc2n1Cc1ccc(-c2nc(C(F)(F)F)cn2C(C)C)cc1` [Example 154, 6-(4-cyclopropyl-6-methoxypyrimidin-5-yl)-1-(4-(1-isopropyl-4-(trifluoromethyl)-1H-imidazol-2-yl)benzyl)-N-methyl-1H-pyrrolo[3,2-c]pyridine-2-carboxamide], in the assay with UWB1.289 cells, the 50% growth inhibitory concentration (GI50) is under 100 nM. The ΔTm at 100 µM on recombinant USP1 protein is over 5 °C.

Take `CNC(=O)c1cc2cnc(-c3c(OC4CC4)ncnc3C3CC3)nc2n1Cc1ccc(-c2nc(C(F)(F)F)cn2C(C)C)cc1` [Example 130, 2-(4-cyclopropoxy-6-cyclopropylpyrimidin-5-yl)-7-(4-(1-isopropyl-4-(trifluoromethyl)-1H-imidazol-2-yl)benzyl)-N-methyl-7H-pyrrolo[2,3-d]pyrimidine-6-carboxamide]: the GI50 in the assay on UWB1.289 cells is under 100 nM. The shift in melting temperature (ΔTm) at 100 µM on recombinant USP1 protein was over 5 °C.
